# Measurements: ChEMBL document CHEMBL2073842, “Characterization of the efflux transport of 17beta-estradiol-D-17beta-glucuronide from the brain across the blood-brain barrier” (J Pharmacol Exp Ther, 2001)
# T1: Solute carrier organic anion transporter family member 1A1 (Rattus norvegicus, UniProt P46720)
# T1 sequence (P46720 whole entry): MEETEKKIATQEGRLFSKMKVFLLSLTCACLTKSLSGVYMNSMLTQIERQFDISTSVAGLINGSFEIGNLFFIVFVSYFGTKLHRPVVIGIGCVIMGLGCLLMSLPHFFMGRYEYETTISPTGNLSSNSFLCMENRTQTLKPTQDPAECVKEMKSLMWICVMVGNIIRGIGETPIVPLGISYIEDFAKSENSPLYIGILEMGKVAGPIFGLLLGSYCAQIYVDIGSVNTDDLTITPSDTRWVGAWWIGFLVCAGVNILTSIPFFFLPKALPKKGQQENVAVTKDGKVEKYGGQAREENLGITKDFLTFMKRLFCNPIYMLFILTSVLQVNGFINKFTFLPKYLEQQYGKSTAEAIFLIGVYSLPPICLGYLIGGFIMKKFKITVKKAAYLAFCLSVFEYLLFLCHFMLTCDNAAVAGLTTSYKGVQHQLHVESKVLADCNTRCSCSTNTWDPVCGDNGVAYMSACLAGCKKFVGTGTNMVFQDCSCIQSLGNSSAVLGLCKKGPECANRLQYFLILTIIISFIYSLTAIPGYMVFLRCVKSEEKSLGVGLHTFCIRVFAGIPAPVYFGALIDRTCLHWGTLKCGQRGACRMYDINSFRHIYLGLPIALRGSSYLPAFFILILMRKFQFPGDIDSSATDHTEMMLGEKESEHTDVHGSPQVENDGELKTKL
# T2: Organic anion transporter 3 (Rattus norvegicus, UniProt Q9R1U7)
# T2 sequence (Q9R1U7 whole entry): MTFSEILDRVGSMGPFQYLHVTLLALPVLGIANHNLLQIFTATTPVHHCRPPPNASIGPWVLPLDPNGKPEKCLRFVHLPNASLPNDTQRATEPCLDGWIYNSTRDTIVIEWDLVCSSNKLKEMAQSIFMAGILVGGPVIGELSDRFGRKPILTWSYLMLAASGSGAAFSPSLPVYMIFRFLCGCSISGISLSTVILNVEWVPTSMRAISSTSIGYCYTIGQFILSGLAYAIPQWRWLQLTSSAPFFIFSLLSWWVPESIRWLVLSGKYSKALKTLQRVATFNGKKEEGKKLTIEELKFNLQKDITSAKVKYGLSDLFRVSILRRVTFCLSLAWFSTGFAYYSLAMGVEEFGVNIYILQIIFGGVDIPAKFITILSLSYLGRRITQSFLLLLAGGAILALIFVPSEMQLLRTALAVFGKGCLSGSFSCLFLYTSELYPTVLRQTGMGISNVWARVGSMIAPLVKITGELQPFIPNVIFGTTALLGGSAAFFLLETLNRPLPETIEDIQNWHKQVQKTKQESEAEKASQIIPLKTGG
# T3: Solute carrier organic anion transporter family member 1A4 (Rattus norvegicus, UniProt O35913)
# T3 sequence (O35913 whole entry): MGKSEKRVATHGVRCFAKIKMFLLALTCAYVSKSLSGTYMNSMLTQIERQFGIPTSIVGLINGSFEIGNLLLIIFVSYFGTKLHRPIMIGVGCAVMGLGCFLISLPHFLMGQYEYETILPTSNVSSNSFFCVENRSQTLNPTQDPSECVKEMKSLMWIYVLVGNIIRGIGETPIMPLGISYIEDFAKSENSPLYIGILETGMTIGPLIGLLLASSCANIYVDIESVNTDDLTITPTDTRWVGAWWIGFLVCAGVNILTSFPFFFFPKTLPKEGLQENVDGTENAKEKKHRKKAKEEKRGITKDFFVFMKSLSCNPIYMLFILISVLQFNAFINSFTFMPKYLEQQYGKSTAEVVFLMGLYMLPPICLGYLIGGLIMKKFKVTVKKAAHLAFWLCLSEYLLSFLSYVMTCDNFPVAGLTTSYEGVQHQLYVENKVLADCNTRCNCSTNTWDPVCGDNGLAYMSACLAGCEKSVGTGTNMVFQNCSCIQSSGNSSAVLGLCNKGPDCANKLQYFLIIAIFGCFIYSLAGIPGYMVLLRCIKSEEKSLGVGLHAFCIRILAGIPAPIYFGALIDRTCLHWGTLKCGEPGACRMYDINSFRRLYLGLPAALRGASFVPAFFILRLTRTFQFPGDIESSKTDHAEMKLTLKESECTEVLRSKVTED
# B1: Solute carrier organic anion transporter family member 1A4 (Rattus norvegicus) (protein)
# chain: MGKSEKRVATHGVRCFAKIKMFLLALTCAYVSKSLSGTYMNSMLTQIERQFGIPTSIVGLINGSFEIGNLLLIIFVSYFGTKLHRPIMIGVGCAVMGLGCFLISLPHFLMGQYEYETILPTSNVSSNSFFCVENRSQTLNPTQDPSECVKEMKSLMWIYVLVGNIIRGIGETPIMPLGISYIEDFAKSENSPLYIGILETGMTIGPLIGLLLASSCANIYVDIESVNTDDLTITPTDTRWVGAWWIGFLVCAGVNILTSFPFFFFPKTLPKEGLQENVDGTENAKEKKHRKKAKEEKRGITKDFFVFMKSLSCNPIYMLFILISVLQFNAFINSFTFMPKYLEQQYGKSTAEVVFLMGLYMLPPICLGYLIGGLIMKKFKVTVKKAAHLAFWLCLSEYLLSFLSYVMTCDNFPVAGLTTSYEGVQHQLYVENKVLADCNTRCNCSTNTWDPVCGDNGLAYMSACLAGCEKSVGTGTNMVFQNCSCIQSSGNSSAVLGLCNKGPDCANKLQYFLIIAIFGCFIYSLAGIPGYMVLLRCIKSEEKSLGVGLHAFCIRILAGIPAPIYFGALIDRTCLHWGTLKCGEPGACRMYDINSFRRLYLGLPAALRGASFVPAFFILRLTRTFQFPGDIESSKTDHAEMKLTLKESECTEVLRSKVTED
# B2: Solute carrier family 22 member 6 (Rattus norvegicus) (protein)
# chain: MAFNDLLKQVGGVGRFQLIQVTMVVAPLLLMASHNTLQNFTAAIPPHHCRPPANANLSKDGGLEAWLPLDKQGQPESCLRFTSPQWGPPFYNGTEANGTRVTEPCIDGWVYDNSTFPSTIVTEWNLVCSHRAFRQLAQSLYMVGVLLGAMVFGYLADRLGRRKVLILNYLQTAVSGTCAAYAPNYTVYCVFRLLSGMSLASIAINCMTLNVEWMPIHTRAYVGTLIGYVYSLGQFLLAGIAYAVPHWRHLQLVVSVPFFIAFIYSWFFIESARWYSSSGRLDLTLRALQRVARINGKQEEGAKLSIEVLRTSLQKELTLSKGQASAMELLRCPTLRHLFLCLSMLWFATSFAYYGLVMDLQGFGVSMYLIQVIFGAVDLPAKFVCFLVINSMGRRPAQMASLLLAGICILVNGIIPKSHTIIRTSLAVLGKGCLASSFNCIFLYTGELYPTVIRQTGLGMGSTMARVGSIVSPLVSMTAEFYPSMPLFIFGAVPVVASAVTALLPETLGQPLPDTVQDLKSRSRGKQNQQQQEQQKQMMPLQASTQEKNGL
# B3: Solute carrier organic anion transporter family member 1A1 (Rattus norvegicus) (protein)
# chain: MEETEKKIATQEGRLFSKMKVFLLSLTCACLTKSLSGVYMNSMLTQIERQFDISTSVAGLINGSFEIGNLFFIVFVSYFGTKLHRPVVIGIGCVIMGLGCLLMSLPHFFMGRYEYETTISPTGNLSSNSFLCMENRTQTLKPTQDPAECVKEMKSLMWICVMVGNIIRGIGETPIVPLGISYIEDFAKSENSPLYIGILEMGKVAGPIFGLLLGSYCAQIYVDIGSVNTDDLTITPSDTRWVGAWWIGFLVCAGVNILTSIPFFFLPKALPKKGQQENVAVTKDGKVEKYGGQAREENLGITKDFLTFMKRLFCNPIYMLFILTSVLQVNGFINKFTFLPKYLEQQYGKSTAEAIFLIGVYSLPPICLGYLIGGFIMKKFKITVKKAAYLAFCLSVFEYLLFLCHFMLTCDNAAVAGLTTSYKGVQHQLHVESKVLADCNTRCSCSTNTWDPVCGDNGVAYMSACLAGCKKFVGTGTNMVFQDCSCIQSLGNSSAVLGLCKKGPECANRLQYFLILTIIISFIYSLTAIPGYMVFLRCVKSEEKSLGVGLHTFCIRVFAGIPAPVYFGALIDRTCLHWGTLKCGQRGACRMYDINSFRHIYLGLPIALRGSSYLPAFFILILMRKFQFPGDIDSSATDHTEMMLGEKESEHTDVHGSPQVENDGELKTKL
# Columns and labels:
# [1] = molecular target: T1, Solute carrier organic anion transporter family member 1A1; test: TP_TRANSPORTER: inhibition of E217betaG uptake in Oatp1-expressing LLC-PK1 cells; assay type: functional, cell-based
# [2] = molecular target: T2, Organic anion transporter 3; test: TP_TRANSPORTER: inhibition of E217betaG uptake in Oat3-expressing LLC-PK1 cells; assay type: functional, cell-based
# [3] = molecular target: T3, Solute carrier organic anion transporter family member 1A4; test: TP_TRANSPORTER: inhibition of E217betaG uptake in Oatp2-expressing LLC-PK1 cells; assay type: functional, cell-based
# [4] = substrate: C[C@]12CC[C@@H]3c4ccc(O)cc4CC[C@H]3[C@@H]1CC[C@@H]2O[C@@H]1O[C@H](C(=O)O)[C@@H](O)[C@H](O)[C@H]1O; test: TP_TRANSPORTER: uptake in Oatp2-expressing LLC-PK1 cells; assay type: functional, cell-based
# [5] = substrate: Nc1ccc(C(=O)NCC(=O)O)cc1; test: cells, lysate or membranes named
# [6] = substrate: C[C@]12CC[C@@H]3c4ccc(O)cc4CC[C@H]3[C@@H]1CC[C@@H]2O[C@@H]1O[C@H](C(=O)O)[C@@H](O)[C@H](O)[C@H]1O; test: TP_TRANSPORTER: uptake in Oatp1-expressing LLC-PK1 cells; assay type: functional, cell-based
molecule,measurement,setting,value
CCCN(CCC)S(=O)(=O)c1ccc(C(=O)O)cc1 [PROBENECID],Ki,[1],74.4 µM
same,Ki,[2],20 µM
same,Ki,[3],72.9 µM
Nc1ccc(C(=O)NCC(=O)O)cc1 [AMINOHIPPURIC ACID],Ki,[2],301 µM
B1,Km,[4],17 µM
B2,Km,[5],85.1 µM
B3,Km,[6],2.58 µM
